Test results taken from patent publication US20250332173A1, “COMPOUNDS AND METHODS FOR MODULATING NUCLEIC ACID SPLICING” (REMIX THERAPEUTICS INC., priority 2021, published 2025).
pIC50: −log10 of the molar value. Counter-ions that a name gives are not always drawn. Like-named read-outs stand apart in the source and are kept apart here.

Key:
MYB = test: HiBiT protein abundance assay, MYB HiBiT K562 cell line; format: cell-based, human; details: 24 hours, top dose 10 μM
Summary of the method: (§1)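 Tagged-protein abundance measured by split-NanoBiT luminescence after lysis, following 24 h compound exposure (37° C; 10 μM top, 3-fold, 10 points; DMSO ≤0.25%) of HiBiT knock-in K562 cells. Percent response vs DMSO and unmodified-cell controls; 4-parameter logistic interpolation at 50% gave IC50.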

[1] = tested on: K562 (human chronic myelogenous leukemia) cells; test: Cell Titer Glo 2.0 cell viability assay; format: cell-based; details: Homo sapiens, K562, 72 h, K562 cells, 72 hours, Cell Titer Glo 2.0; read-out: K562 GI50
Target C = test: RT-qPCR splicing assay panel, Target C canonical junction (CJ) mRNA; format: cell-based, human; details: Homo sapiens; Table 5 panel; canonical junction qPCR; compound concentration having 50% response in CJ decrease; read-out: Target C IC50 (decrease in CJ mRNA levels)
Summary of the method: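 A673 cells (DMEM/10% FBS) or K562 cells (IMDM/10% FBS) were treated 24 h at 37° C. with 11-point 3-fold dilutions (top 10 uM, ≤0.25% DMSO). Canonical-junction mRNA was quantified in lysates by RT-qPCR, normalized to GAPDH, GUSB or PPIA.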

HTT = test: HiBiT protein abundance assay, HTT HiBiT K562 cell line; format: cell-based, human; details: 24 hours, top dose 10 μM
Summary of the method: as §1

[2] = HiBiT K562 cell line, read-out: Effect on protein abundance, MYB (IC50 category)
[3] = HiBiT K562 cell line, read-out: Effect on protein abundance, HTT (IC50 category)

| SMILES | pIC50 (MYB; [2]) | GI50 [1] | pIC50 (Target C) | pIC50 (HTT; [3]) | pIC50 (MYB; HiBiT lytic detection, modified K562 cells, read-out: Effect on protein abundance, MYB (IC50)) | pIC50 (HTT; HiBiT lytic detection, modified K562 cells, read-out: Effect on protein abundance, HTT (IC50)) |
| --- | --- | --- | --- | --- | --- | --- |
| Cc1cn2nc(-c3cc(F)c4c(=O)n([C@H]5CCN(C)C6(CC6)C5)ncc4c3)cc(C)c2n1 [Compound 638] | 6.00 to 7.00 | 100 to 1000 nM | > 7.00 | > 7.00 |  |  |
| CN(c1ccc2c(=O)n(-c3ccc4nn(C)cc4c3)cnc2c1)C1CCNCC1 [Compound 180] | < 5.00 | > 10000 nM | 5.00 to 6.00 | < 5.00 |  |  |
| Cc1cn2cc(-c3cc(F)c4c(=O)n([C@H]5CNC[C@H]5C)ccc4c3)cc(F)c2n1 [Compound 652, 8-fluoro-6-(8-fluoro-2-methyl-imidazo[1,2-a]pyridin-6-yl)-2-[(3R,4R)-4-methylpyrrolidin-3-yl]isoquinolin-1-one] | 5.00 to 6.00 | 1000 to 10000 nM | < 5.00 | < 5.00 |  |  |
| Cc1cn2nc(-c3cc4ncn(C5CCNCC5)c(=O)c4cc3F)cc(C)c2n1 [Compound 585, 7-{2,8-dimethylimidazo[1,2-b]pyridazin-6-yl}-6-fluoro-3-(piperidin-4-yl)quinazolin-4-one] | 5.00 to 6.00 | 1000 to 10000 nM | 5.00 to 6.00 | 5.00 to 6.00 |  |  |
| Cc1cn2nc(-c3ccn4c(=O)c(C5CCNCC5)ccc4c3)cc(C)c2n1 [Compound 1181] |  | < 100 nM | > 7.00 |  | > 7.00 | > 7.00 |
| Cc1cc(-c2cc(O)c3c(=O)n(C4CCNC5(CC5)C4)ncc3c2)cc2cn(C)nc12 (centres unmarked) [Compound 561] | 6.00 to 7.00 | 1000 to 10000 nM | 5.00 to 6.00 | 6.00 to 7.00 |  |  |
| Cc1cn2nc(-c3cc(O)c4c(=O)n(C5CCNCC5)ncc4c3)cc(C)c2n1 [Compound 541] | > 7.00 | < 100 nM | > 7.00 | > 7.00 |  |  |
| Cc1cn2nc(-c3cc(N)c4c(=O)n([C@@H]5CCNC5)ccc4c3)cc(C)c2n1 [Compound 646, 8-amino-6-(2,8-dimethylimidazo[1,2-b]pyridazin-6-yl)-2-[(3R)-pyrrolidin-3-yl]isoquinolin-1-one] | 5.00 to 6.00 | 1000 to 10000 nM | < 5.00 | < 5.00 |  |  |
| Cc1cn2nc(-c3ccc4c(=O)n(C5CCNCC5)ccc4c3)cc(CC#N)c2n1 [Compound 520, 2-[2-methyl-6-[1-oxo-2-(4-piperidyl)-6-isoquinolyl]imidazo[1,2-b]pyridazin-8-yl]acetonitrile] | 6.00 to 7.00 | 1000 to 10000 nM | 5.00 to 6.00 | 6.00 to 7.00 |  |  |
| Cc1cn2nc(-c3cc(N)c4c(=O)n([C@H]5CCNC5)ccc4c3)cc(C)c2n1 [Compound 645, 8-amino-6-(2,8-dimethylimidazo[1,2-b]pyridazin-6-yl)-2-[(3S)-pyrrolidin-3-yl]isoquinolin-1-one] | 5.00 to 6.00 | 1000 to 10000 nM | < 5.00 | 5.00 to 6.00 |  |  |
| C=Cc1cn(C2CCNCC2)c(=O)c2c(F)cc(-c3cc(F)c4nc(C)cn4c3)cc12 [Compound 559, 4-ethenyl-8-fluoro-6-{8-fluoro-2-methylimidazo[1,2-a]pyridin-6-yl}-2-(piperidin-4-yl)isoquinolin-1-one] | > 7.00 | < 100 nM | 6.00 to 7.00 | > 7.00 |  |  |
| COc1cc(-c2ccc3c(=O)n(C4CCNCC4)ccc3c2)nn2cc(C)nc12 [Compound 514, 6-(8-methoxy-2-methyl-imidazo[1,2-b]pyridazin-6-yl)-2-(4-piperidyl) isoquinolin-1-one; hydrochloride] | > 7.00 | < 100 nM | > 7.00 | > 7.00 |  |  |
| Cc1cn2nc(-c3ccc4c(=O)n(C5CCNCC5)ccc4c3)cc(CC(=O)O)c2n1 [Compound 531, 2-[2-methyl-6-[1-oxo-2-(4-piperidyl)-6-isoquinolyl]imidazo[1,2-b]pyridazin-8-yl]acetic acid] | > 7.00 | 100 to 1000 nM | 6.00 to 7.00 | > 7.00 |  |  |
| CN1CCC(c2ccc3c(=O)n(-c4ccc5nn(C)cc5c4)cnc3c2)CC1 [Compound 177] | < 5.00 | > 10000 nM | 5.00 to 6.00 | < 5.00 |  |  |
| Cc1cc(-c2ccc3c(=O)n(N4CCN(C)CC4)cnc3c2)cc2cn(C)nc12 [Compound 175] | 5.00 to 6.00 | 1000 to 10000 nM | < 5.00 | 5.00 to 6.00 |  |  |
| Cc1cn2nc(-c3ccc4c(=O)n(C5CCNCC5)ccc4c3)cc(OCc3ccccc3)c2n1 [Compound 526, 6-(8-benzyloxy-2-methyl-imidazo[1,2-b]pyridazin-6-yl)-2-(4-piperidyl) isoquinolin-1-one] | > 7.00 | 100 to 1000 nM | 5.00 to 6.00 | 6.00 to 7.00 |  |  |

| SMILES | pIC50 (MYB; [2]) | GI50 [1] | pIC50 (Target C) | pIC50 (HTT; [3]) | pIC50 (MYB; HiBiT lytic detection, modified K562 cells, read-out: Effect on protein abundance, MYB (IC50)) | pIC50 (HTT; HiBiT lytic detection, modified K562 cells, read-out: Effect on protein abundance, HTT (IC50)) |
| --- | --- | --- | --- | --- | --- | --- |
| Cc1cc(-c2ccc3c(=O)n(C4CCNC5(CC5)C4)ncc3c2)cc2cn(C)nc12 (centres unmarked) [Compound 512] | 5.00 to 6.00 | 1000 to 10000 nM | 5.00 to 6.00 | 5.00 to 6.00 |  |  |
| Cc1cc(-c2ccc3c(=O)n(C4CC(C)(C)NC(C)(C)C4)cnc3n2)cc2cn(C)nc12 [Compound 179] | < 5.00 | > 10000 nM | < 5.00 | < 5.00 |  |  |
| Cc1cn2nc(-c3ccc4c(=O)n(C5CCNCC5)ccc4c3)cc(Oc3cccnc3)c2n1 [Compound 550, 6-[2-methyl-8-(3-pyridyloxy)imidazo[1,2-b]pyridazin-6-yl]-2-(4-piperidyl)isoquinolin-1-one] | > 7.00 | < 100 nM | > 7.00 | > 7.00 |  |  |
| Cc1cn2nc(-c3ccc4c(=O)n(C5CCN(CCF)CC5)ncc4c3)cc(C)c2n1 [Compound 515] | 5.00 to 6.00 | 1000 to 10000 nM | 5.00 to 6.00 | 6.00 to 7.00 |  |  |
| COC(=O)c1cc(-c2ccc3c(=O)n(C4CCNCC4)ccc3c2)nn2cc(C)nc12 [Compound 517, methyl 2-methyl-6-[1-oxo-2-(4-piperidyl)-6-isoquinolyl]imidazo[1,2-b]pyridazine-8-carboxylate] | 6.00 to 7.00 | 1000 to 10000 nM | 5.00 to 6.00 | 5.00 to 6.00 |  |  |
| Cc1cn2nc(-c3ccc4c(=O)n(C5CCN(C)CC5)cnc4c3)cc(C)c2n1 [Compound 176] | 6.00 to 7.00 | 1000 to 10000 nM | 5.00 to 6.00 | 5.00 to 6.00 |  |  |
| CNc1cc(-c2cc(C)c3nc(C)cn3n2)cc2ccn([C@H]3CCNC3)c(=O)c12 [Compound 647, 6-(2,8-dimethylimidazo[1,2-b]pyridazin-6-yl)-8-(methylamino)-2-[(3S)-pyrrolidin-3-yl]isoquinolin-1-one] | 5.00 to 6.00 | 1000 to 10000 nM | < 5.00 | 5.00 to 6.00 |  |  |
| Cc1cn2nc(-c3cc4ccn([C@H]5CCNC5)c(=O)c4cc3O)cc(C)c2n1 [Compound 641, 6-(2,8-dimethylimidazo[1,2-b]pyridazin-6-yl)-7-hydroxy-2-[(3S)-pyrrolidin-3-yl]isoquinolin-1-one] | > 7.00 | 100 to 1000 nM | 5.00 to 6.00 | 6.00 to 7.00 |  |  |
| Cc1cn2nc(-c3cc(F)c4c(=O)n(C5CCNCC5)ncc4c3)cc(Oc3ccccc3)c2n1 [Compound 548, 8-fluoro-6-(2-methyl-8-phenoxy-imidazo[1,2-b]pyridazin-6-yl)-2-(4-piperidyl)phthala-zin-1-one] | > 7.00 | < 100 nM | > 7.00 | > 7.00 |  |  |
| Cn1ccc2c(cnn2-c2ccc3c(=O)n(C4CCNCC4)ccc3c2)c1=O [Compound 521] | 5.00 to 6.00 | 1000 to 10000 nM | 5.00 to 6.00 | 5.00 to 6.00 |  |  |
| Cc1cn2nc(-c3cc(F)c4c(=O)n(C5CCNC5)cnc4c3)cc(C)c2n1 (centres unmarked) [Compound 589, 7-{2,8-dimethylimidazo[1,2-b]pyridazin-6-yl}-5-fluoro-3-(pyrrolidin-3-yl)quinazolin-4-one] | 5.00 to 6.00 | 1000 to 10000 nM | < 5.00 | 5.00 to 6.00 |  |  |
| Cc1cn2nc(-c3cc(F)c4c(=O)n(C5CCN(C)CC5)ncc4c3)cc(C)c2n1 [Compound 539] | > 7.00 | 100 to 1000 nM | 6.00 to 7.00 | > 7.00 |  |  |
| Cc1cn2cc(-c3cc(O)c4c(=O)n(C5CCNCC5)cnc4c3)cc(F)c2n1 [Compound 587, 7-{8-fluoro-2-methylimidazo[1,2-a]pyridin-6-yl}-5-hydroxy-3-(piperidin-4-yl)quinazolin-4-one] | > 7.00 | 100 to 1000 nM | 6.00 to 7.00 | 6.00 to 7.00 |  |  |
| Cn1cc2c(=O)n(-c3ccc4c(=O)n(C5CCNCC5)ccc4c3)ccc2n1 [Compound 530, 6-{2-methyl-4-oxopyrazolo[4,3-c]pyridin-5-yl}-2-(piperidin-4-yl)isoquinolin-1-one] | < 5.00 | > 10000 nM | < 5.00 | < 5.00 |  |  |
| Cc1cn2cc(-c3cc4ncn(C5CCNCC5)c(=O)c4cc3F)cc(F)c2n1 [Compound 586, 6-fluoro-7-{8-fluoro-2-methylimidazo[1,2-a]pyridin-6-yl}-3-(piperidin-4-yl)quinazolin-4-one] | 6.00 to 7.00 | 100 to 1000 nM | 5.00 to 6.00 | 6.00 to 7.00 |  |  |
| Cc1cn2nc(-c3cc(F)c4c(=O)n(C5CCNCC5)ncc4c3)cc(C)c2n1 [Compound 540] | > 7.00 | < 100 nM | > 7.00 | > 7.00 |  |  |
